{"source": "patent US20090123979A1", "about": "“Methods of reducing the inhibitory effect of a tannin on the enzymatic hydrolysis of cellulosic material” (Novozymes, Inc., priority 2007, published 2009)", "key": {"[1]": {"target": "T1, Trichoderma reesei CEL5A endoglucanase II (Trichoderma reesei, UniProt P07982)", "T1 construct": "made in house", "T1 sequence (P07982 22-418)": "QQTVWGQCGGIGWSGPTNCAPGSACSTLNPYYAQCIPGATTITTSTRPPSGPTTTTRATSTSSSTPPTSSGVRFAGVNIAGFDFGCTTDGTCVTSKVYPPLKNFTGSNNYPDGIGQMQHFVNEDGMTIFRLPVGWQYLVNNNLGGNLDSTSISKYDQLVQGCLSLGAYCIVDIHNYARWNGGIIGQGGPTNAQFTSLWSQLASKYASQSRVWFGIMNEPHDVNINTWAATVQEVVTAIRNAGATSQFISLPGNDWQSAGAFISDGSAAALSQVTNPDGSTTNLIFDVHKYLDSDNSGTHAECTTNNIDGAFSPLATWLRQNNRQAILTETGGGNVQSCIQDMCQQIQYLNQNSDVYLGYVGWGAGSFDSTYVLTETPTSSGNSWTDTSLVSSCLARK", "assay": "PASC hydrolysis by CEL5A endoglucanase II with tannic acid", "assay_type": "biochemical", "method": "(§1) The inhibitory effect of tannic acid was determined on Trichoderma reesei CEL7A cellobiohydrolase 1, Trichoderma reesei CEL6A cellobiohydrolase II, Trichoderma reesei CEL7B endoglucanase 1, and Trichoderma reesei CEL5A endoglucanase II using PASC as substrate.\n(§2) To quantify the inhibition, tannic acid was evaluated in the hydrolysis of PASC."}, "[2]": {"target": "T2, Trichoderma reesei CEL7A cellobiohydrolase I (Trichoderma reesei, UniProt P62694, INS458P/R459P)", "T2 construct": "made in house", "T2 sequence (P62694 other isoform, or with tags, fused parts or gaps INS458P/R459P)": "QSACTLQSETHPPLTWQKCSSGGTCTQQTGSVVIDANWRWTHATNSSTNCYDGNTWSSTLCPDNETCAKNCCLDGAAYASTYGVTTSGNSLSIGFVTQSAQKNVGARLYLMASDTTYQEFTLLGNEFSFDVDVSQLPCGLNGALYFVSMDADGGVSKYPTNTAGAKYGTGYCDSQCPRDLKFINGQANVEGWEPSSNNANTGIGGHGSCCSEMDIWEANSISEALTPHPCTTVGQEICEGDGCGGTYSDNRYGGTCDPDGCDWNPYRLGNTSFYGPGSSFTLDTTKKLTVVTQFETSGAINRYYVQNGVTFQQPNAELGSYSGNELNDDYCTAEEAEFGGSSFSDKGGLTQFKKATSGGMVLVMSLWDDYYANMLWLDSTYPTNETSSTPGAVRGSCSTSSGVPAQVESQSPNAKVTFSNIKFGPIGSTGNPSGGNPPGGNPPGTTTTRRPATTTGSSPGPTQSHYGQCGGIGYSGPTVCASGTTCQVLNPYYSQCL", "assay": "PASC hydrolysis by CEL7A cellobiohydrolase I with tannic acid", "assay_type": "biochemical", "method": "as §1, §2"}, "[3]": {"target": "T3, Trichoderma reesei CEL7B endoglucanase I (Trichoderma reesei, UniProt P07981)", "T3 construct": "made in house; host or cells: Aspergillus oryzae JaL250", "T3 sequence (P07981 23-459)": "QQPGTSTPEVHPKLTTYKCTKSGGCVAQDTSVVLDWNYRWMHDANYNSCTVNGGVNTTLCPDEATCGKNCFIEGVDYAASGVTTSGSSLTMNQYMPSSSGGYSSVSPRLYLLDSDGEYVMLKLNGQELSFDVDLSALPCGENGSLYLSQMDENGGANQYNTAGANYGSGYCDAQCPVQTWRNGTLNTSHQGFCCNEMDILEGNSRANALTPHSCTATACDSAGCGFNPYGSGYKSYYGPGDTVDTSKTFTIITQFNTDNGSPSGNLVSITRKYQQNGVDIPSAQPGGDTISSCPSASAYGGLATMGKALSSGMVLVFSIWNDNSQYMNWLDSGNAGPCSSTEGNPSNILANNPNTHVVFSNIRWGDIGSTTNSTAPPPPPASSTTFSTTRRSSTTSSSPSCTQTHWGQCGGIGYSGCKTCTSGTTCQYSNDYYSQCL", "assay": "PASC hydrolysis by CEL7B endoglucanase I with tannic acid", "assay_type": "biochemical", "method": "as §1, §2"}, "[4]": {"tested_on": "T4, Cellulolytic Enzyme Composition #1", "T4 construct": "other: PASC hydrolysis; mean ± SD; 0.01 g enzyme; Dixon plot linear regression intercept (1/Rate); other: AVICEL; rate from hydrolysis difference (%) at 0 and 6 hours; rate from hydrolysis difference; fused on or other part: The A. oryzae beta-glucosidase is the mature chain secreted behind the Humicola insolens endoglucanase V signal peptide, which is cleaved off", "assay": "AVICEL hydrolysis by Cellulolytic Enzyme Composition #1 with added compounds", "assay_type": "biochemical, Trichoderma reesei", "from_the_text": "(§3) Initial hydrolysis rates were obtained from the first two hydrolysis time points (i.e., soluble sugar measurements) (with <20% hydrolysis extent in general, rate=(hydrolysis difference)/(time difference)). Double-reciprocal plots (1/(initial rate) vs 1/[cellulose] as function of tannic acid concentration) indicated a “mixed” type inhibition, but their complexity prevented extraction of simple inhibitor constants. Initial rate vs tannic acid concentration yielded an I50 (inhibitor concentration leading to 50% loss of hydrolysis rate) of 0.2±0.1 or 0.27±0.07 mM on PASC or AVICEL® hydrolysis, respectively\nTo examine where tannic acid exerted its inhibition, a series of hydrolysis reactions of AVICEL® by Cellulolytic Enzyme Composition #1 was performed in which AVICEL® and Cellulolytic Enzyme Composition #1 were used fresh or after pre-incubation with tannic acid. […] (with detectable precipitation seen), the pre-incubated Cellulolytic Enzyme Composition #1 was gel-filtered using BioSpin 6 desalting columns (Bio-Rad, Hercules, Calif., USA). […] Hydrolysis of untreated or buffer-only pre-incubated AVICEL® and Cellulolytic Enzyme Composition #1, with or without inhibitors, served as controls."}, "[5]": {"tested_on": "T4, Cellulolytic Enzyme Composition #1", "assay": "PCS hydrolysis by Cellulolytic Enzyme Composition #1 with added compounds", "assay_type": "biochemical, Trichoderma reesei", "method": "Corn stover was pretreated at the U.S. Department of Energy National Renewable Energy Laboratory (NREL), […], Colo., USA, using dilute sulfuric acid. The following conditions were used for the pretreatment: 1.4 wt % sulfuric acid at 195° C. for 4.5 minutes. According to limit digestion with excess cellulase enzymes, the water-insoluble solids in the pretreated corn stover (PCS) contained 59.5% cellulose. Prior to use, the PCS was washed with a large volume of deionized water until soluble acid and sugars were removed. The dry weight of the water-washed PCS was 19.16%.\nThe effect of a mixture of tannic acid, ellagic acid, epicatechin, and six lignin constituent compounds (4-hydroxyl-2-methylbenzoic acid, vanillin, coniferyl alcohol, coniferyl aldehyde, ferulic acid, and syringaldehyde) was determined on the hydrolysis of PCS by Cellulolytic Enzyme Composition #1 or Cellulolytic Enzyme Composition #2. […] Cellulolytic Enzyme Composition #1 or Cellulolytic Enzyme Composition #2 was added at 0.25 g per liter. Reactions without the addition of the compounds served as controls. The capped tubes were incubated at 50° C. in an INNOVA® 4080 incubator shaker (New Brunswick Scientific Co., Inc., Edison, N.J., USA) at 150 rpm.\nAliquots of the suspensions, sampled over time, were filtered by centrifugation using a 0.45 μm MULTISCREEN® HV membrane (Millipore, Billerica, Mass., USA) at 2000 rpm for 15 minutes using a SORVALL® RT7 centrifuge (Thermo Fisher Scientific, Waltham, Mass., USA). When not used immediately, the filtered aliquots were frozen at −20° C. Sugar concentrations of the samples diluted in 0.005 M H2SO4 were measured after elution by 0.005 M H2SO4 at a flow rate of 0.4 ml/minute from a 4.6×250 mm AMINEX® HPX-87H column (Bio-Rad, Hercules, Calif., USA) at 65° C. with quantitation by integration of glucose and cellobiose using refractive index detection (CHEMSTATION®, AGILENT® 1100 HPLC, Agilent Technologies, Santa Clara, Calif., USA) calibrated with standards of glucose and cellobiose. The resultant equivalents were used to calculate the percentage of cellulose conversion for each reaction.\nThe degree of cellulose conversion to glucose plus cellobiose sugars (conversion, %) was calculated using the following equation:\nConversion(%)=(glucose+cellobiose×1.053)(mg/ml)×100×162/cellulose(mg/ml)×180)=(glucose+cellobiose×1.053)(mg/ml)×100/(cellulose(mg/ml)×1.111)\nIn this equation the factor 1.111 reflects the weight gain in converting cellulose to glucose, and the factor 1.053 reflects the weight gain in converting cellobiose to glucose. Cellulose in PCS was determined by a limit digest of PCS to release glucose and cellobiose.\nExample 30 was repeated except that each compound was tested separately. […] Reactions without the addition of each compound served as controls.\nThe effect of OPC or flavonol on the hydrolysis of PCS by Cellulolytic Enzyme Composition #1 or Cellulolytic Enzyme Composition #2 was determined according to the procedure described in Example 30. OPC and flavonol were present at a concentration of 1 mM. Reactions without the addition of the compounds served as controls.\nMethyl gallate and ellagic acid were compared at 10 mM to 1 mM tannic acid in the hydrolysis of PCS by Cellulolytic Enzyme Composition #1."}, "[6]": {"target": "T4, Cellulolytic Enzyme Composition #1", "assay": "PASC hydrolysis by Cellulolytic Enzyme Composition #1 with tannic acid", "assay_type": "biochemical, Trichoderma reesei", "details": "mean ± SD, 0.01 g enzyme per liter, pH 5.0, 50° C., read-out: I50 (inhibitor concentration leading to 50% loss of hydrolysis rate)", "from_the_text": "as §3"}, "[7]": {"details": "1 mM tannic acid, 2 g PASC per liter, over 4 hours"}, "[8]": {"details": "PASC, 0.1 to 0.7 mM tannic acid"}, "[9]": {"details": "25 g AVICEL, 0.25 g enzyme per liter, 1 mM tannic acid, or 5 mM ellagic acid or 10 mM methyl gallate plus 1 mM glucose pentaacetate"}, "[10]": {"details": "AVICEL, rate from hydrolysis difference (%) at 0 and 6 hours"}, "[11]": {"details": "50 g PCS, 0.25 g enzyme per liter, methyl gallate and ellagic acid 10 mM, tannic acid 1 mM"}}}
{"smiles": "O=C(OC[C@H]1O[C@@H](OC(=O)c2cc(O)c(O)c(OC(=O)c3cc(O)c(O)c(O)c3)c2)[C@H](OC(=O)c2cc(O)c(O)c(OC(=O)c3cc(O)c(O)c(O)c3)c2)[C@@H](OC(=O)c2cc(O)c(O)c(OC(=O)c3cc(O)c(O)c(O)c3)c2)[C@@H]1OC(=O)c1cc(O)c(O)c(OC(=O)c2cc(O)c(O)c(O)c2)c1)c1cc(O)c(O)c(OC(=O)c2cc(O)c(O)c(O)c2)c1", "note": "[tannic acid, Tannic acid]", "values": [{"measurement": "effect on PASC hydrolysis by CEL5A endoglucanase II", "setting": "[1]; [7]", "value": "significantly inhibited"}, {"measurement": "IC50", "setting": "[1]; PASC hydrolysis, mean ± SD, 0.04 g enzyme per liter, pH 5, 50° C., read-out: I50 for CEL5A EGII", "value": "320 ± 50", "unit": "µM"}, {"measurement": "type of inhibition (double reciprocal plots), CEL5A EGII", "setting": "[1]; [8]", "value": "mixed"}, {"measurement": "IC50", "setting": "[2]", "value": "~1000", "unit": "µM"}, {"measurement": "effect on PASC hydrolysis by CEL7A cellobiohydrolase I", "setting": "[2]; [7]", "value": "significantly inhibited"}, {"measurement": "type of inhibition (double reciprocal plots), CEL7A CBHI", "setting": "[2]; [8]", "value": "mixed"}, {"measurement": "effect on PASC hydrolysis by CEL7B endoglucanase I", "setting": "[3]; [7]", "value": "significantly inhibited"}, {"measurement": "IC50", "setting": "[3]; PASC hydrolysis, mean ± SD, 0.04 g enzyme per liter, pH 5, 50° C., read-out: I50 for CEL7B EGI", "value": "300 ± 200", "unit": "µM"}, {"measurement": "type of inhibition (double reciprocal plots), CEL7B EGI", "setting": "[3]; [8]", "value": "mixed"}, {"measurement": "loss in initial rate of AVICEL hydrolysis", "setting": "[4]; [9]", "value": "~90", "unit": "%"}, {"measurement": "loss in the extent of AVICEL hydrolysis at day 8", "setting": "[4]; [9]", "value": "~70", "unit": "%"}, {"measurement": "Ki", "setting": "[4]; AVICEL hydrolysis, Cellulolytic Enzyme Composition #1, OPC in flavanone-equivalent subunits, read-out: inhibition constant Ki (x-intercept of Dixon plot)", "value": "~130", "unit": "µM"}, {"measurement": "IC50", "setting": "[4]; AVICEL hydrolysis, 0.01 g enzyme per liter, pH 5.0, 50° C., read-out: I50 (inhibitor concentration leading to 50% loss of hydrolysis rate)", "value": "270 ± 70", "unit": "µM"}, {"measurement": "Dixon plot linear regression intercept (1/Rate)", "setting": "[4]; [10]", "value": "0.045±0.017"}, {"measurement": "Dixon plot linear regression slope (1/Rate vs inhibitor concentration)", "setting": "[4]; [10]", "value": "0.356±0.033"}, {"measurement": "activity loss of pre-incubated Cellulolytic Enzyme Composition #1", "setting": "[4]; enzyme pre-incubated with 1 mM tannic acid 1 hour at 50° C., then gel-filtered", "value": "approximately 80%"}, {"measurement": "concentration dependence of inhibition of AVICEL hydrolysis", "setting": "[4]; tannic acid 0.05 mM to 1 mM, OPC 1 mM to 10 mM, 23 g AVICEL and 0.25 g enzyme per liter", "value": "increasingly inhibitory"}, {"measurement": "effect on hydrolysis of PCS by Cellulolytic Enzyme Composition #1", "setting": "[5]; 1 mM each compound, 43.4 g PCS and 0.25 g enzyme per liter, pH 5.0, 50° C.", "value": "significantly inhibited"}, {"measurement": "loss in initial rate of PCS hydrolysis", "setting": "[5]; [11]", "value": "~70", "unit": "%"}, {"measurement": "loss in the extent of PCS hydrolysis at day 4", "setting": "[5]; [11]", "value": "~60", "unit": "%"}, {"measurement": "IC50", "setting": "[6]", "value": "200 ± 100", "unit": "µM"}]}
